In US20260200919A1, “SUBSTITUTED AMINOPYRIDINE COMPOUNDS AND METHODS OF TREATING DISEASE USING SAME” (Atavistik Bio, Inc., priority 2023, published 2026) one finds IC50 data, which are given here for 20 molecules.

Each structure is given as a SMILES string.

In assay [1] the target is T1, human recombinant kinase full-length wildtype AKT1 (Homo sapiens, UniProt P31749).
T1 construct: Purified human recombinant kinase full-length wildtype AKT1 was expressed in insect cells; made in house; host or cells: insect cells
Nature of the assay: AKT1 kinase assay (wildtype, TR-FRET, Lance). Format: biochemical. Conditions: 0.6 nM wildtype AKT1, 50 nM Ulight-CREBtide, either 50 μM ATP or 2 mM ATP (not specified which), 60 min at RT. The gist of the method: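 Insect-cell-expressed AKT1, activated in vitro by PDPK1, was used at 0.6 nM with 50 nM Ulight-CREBtide and 50 μM or 2 mM ATP in 50 mM HEPES pH 7.5, 1% DMSO, over a 10-point dose response.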

For assay [2], the target named is T2, human recombinant kinase full-length AKT1 E17K (Homo sapiens, UniProt P31749, E17K).
T2 construct: Purified human recombinant kinase full-length AKT1 E17K was expressed in insect cells; made in house; host or cells: insect cells
Nature of the assay: AKT1 E17K kinase assay (TR-FRET, Lance). Format: biochemical. Conditions: 0.6 nM AKT1 E17K, 50 nM Ulight-CREBtide, either 50 μM ATP or 2 mM ATP (not specified which), 60 min at RT. The gist of the method: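 Full-length human AKT1 E17K (insect cell-expressed, PDPK1-activated; 0.6 nM) with 50 nM ULight-CREBtide in HEPES pH 7.5 with MgCl2 and DTT. ATP at 50 μM or 2 mM, 1% DMSO, 10-point dose response, 60 min at RT.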
For orientation: Time-resolved FRET reads energy transfer from a long-lived donor to a nearby acceptor.

T1 sequence (P31749 whole entry): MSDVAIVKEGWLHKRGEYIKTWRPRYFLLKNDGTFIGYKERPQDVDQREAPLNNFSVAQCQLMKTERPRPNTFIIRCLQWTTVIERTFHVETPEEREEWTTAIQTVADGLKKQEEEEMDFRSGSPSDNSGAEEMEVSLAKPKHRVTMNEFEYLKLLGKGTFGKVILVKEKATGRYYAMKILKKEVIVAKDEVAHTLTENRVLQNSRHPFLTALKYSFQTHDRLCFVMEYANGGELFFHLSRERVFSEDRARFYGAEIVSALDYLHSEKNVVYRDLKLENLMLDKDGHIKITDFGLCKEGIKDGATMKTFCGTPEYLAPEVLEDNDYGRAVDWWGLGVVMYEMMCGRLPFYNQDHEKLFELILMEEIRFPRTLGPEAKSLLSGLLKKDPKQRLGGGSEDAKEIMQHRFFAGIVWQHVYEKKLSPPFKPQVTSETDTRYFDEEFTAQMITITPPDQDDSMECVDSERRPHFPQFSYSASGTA
T2 sequence (P31749 whole entry E17K): as the sequence (P31749 whole entry) above, with E17K counted along it

A word on the IC50: it is the midpoint of a concentration-inhibition curve. As to `CCNC(=O)Cc1cccc(C(=O)NCc2ccc(-n3c(-c4cccnc4N)nc4ccc(-c5ccccc5)nc43)cc2)c1` [Compound 44, N-(4-(2-(2-aminopyridin-3-yl)-5-phenyl-3H-imidazo[4,5-b]pyridin-3-yl)benzyl)-3-(2-(ethylamino)-2-oxoethyl)benzamide], the values for the IC50 in assay [1] and in assay [2] were less than 500 nM and more than 500 nM, respectively.

Turning to `COC(=O)c1ccc([C@@H](C)N2CC(c3ccc(-n4c(-c5cccnc5N)nc5ccc(-c6ccccc6)nc54)cc3)C2)cc1` (single isomer, unassigned) [Compound 157], the IC50 is less than 500 nM in assay [1] and more than 500 nM in assay [2].

`Cc1cc(C(=O)Nc2ccc(-n3c(-c4cccnc4N)nc4ccc(-c5ccccc5)nc43)cn2)ccc1C(=O)O` [Compound 118, 4-((5-(2-(2-aminopyridin-3-yl)-5-phenyl-3H-imidazo[4,5-b]pyridin-3-yl)pyridin-2-yl)carbamoyl)-2-methylbenzoic acid]: the figures for the IC50 in assay [1] and in assay [2] were less than 500 nM and less than 50 nM, respectively.

In the case of `Nc1ncccc1-c1nc2cc(-c3cccnc3)cnc2n1-c1ccc(CNC(=O)c2ccc(CC(=O)O)cc2)cc1` [Compound 88, 2-(4-((4-(2-(2-aminopyridin-3-yl)-6-(pyridin-3-yl)-3H-imidazo[4,5-b]pyridin-3-yl)benzyl)carbamoyl)phenyl) acetic acid], the IC50 was less than 500 nM in assay [1] and more than 500 nM in assay [2].

Consider `Nc1ncccc1-c1nc2ccc(-c3ccccc3)nc2n1-c1ccc(NC(=O)c2cccc(C(=O)O)c2F)cc1` [Compound 55, 3-[[4-[2-(2-amino-3-pyridyl)-5-phenyl-imidazo[4,5-b]pyridin-3-yl]phenyl]carbamoyl]-2-fluoro-benzoic acid], for which the IC50 in assay [1] is less than 500 nM; in assay [2], less than 50 nM.

`Nc1ncccc1-c1nc2ccc(-c3ccccc3)nc2n1-c1ccc(NCc2ccc(C(=O)O)cc2)cc1` [Compound 58, 4-[[4-[2-(2-amino-3-pyridyl)-5-phenyl-imidazo[4,5-b]pyridin-3-yl]anilino]methyl]benzoic acid]: the figures for the IC50 in assay [1] and in assay [2] were less than 500 nM and 50 to 200 nM, respectively.

Take `Nc1ncccc1-c1nc2cc(-c3cccnc3)cnc2n1-c1ccc(CNC(=O)c2cccc(CC(=O)O)c2)cc1` [Compound 90, 2-(3-((4-(2-(2-aminopyridin-3-yl)-6-(pyridin-3-yl)-3H-imidazo[4,5-b]pyridin-3-yl)benzyl)carbamoyl)phenyl) acetic acid]: the IC50 in assay [1] was less than 500 nM; in assay [2], more than 500 nM.

With `CC(=O)Nc1cccc(-c2ccc3nc(-c4cccnc4N)n(-c4ccc(CNC(=O)c5cccc(CC(=O)O)c5)cc4)c3n2)c1` [Compound 81, 2-(3-((4-(5-(3-acetamidophenyl)-2-(2-aminopyridin-3-yl)-3H-imidazo[4,5-b]pyridin-3-yl)benzyl)carbamoyl)phenyl) acetic acid], the IC50 in assay [1] was less than 500 nM; in assay [2], 50 to 200 nM.

Take `CC(C)c1ccc2nc(-c3cccnc3N)n(-c3ccc(NC(=O)c4ccc(C(=O)O)cc4)nc3)c2c1` [Compound 172, 4-((5-(2-(2-aminopyridin-3-yl)-6-isopropyl-1H-benzo[d]imidazol-1-yl)pyridin-2-yl)carbamoyl)benzoic acid]: the IC50 in assay [1] is less than 500 nM; in assay [2] it was more than 500 nM.

As to `Nc1ncccc1-c1nc2ccc(-c3cccnc3)nc2n1-c1ccc(CNC(=O)c2cccc(CC(=O)O)c2)cc1` [Compound 96, 2-(3-((4-(2-(2-aminopyridin-3-yl)-5-(pyridin-3-yl)-3H-imidazo[4,5-b]pyridin-3-yl)benzyl)carbamoyl)phenyl) acetic acid], the IC50 is less than 500 nM in assay [1] and 200 to 500 nM in assay [2].

For the molecule `Nc1ncccc1-c1nc2ccc(-c3ccccc3)nc2n1-c1ccc(C(=O)Nc2ccc(C(=O)O)cc2F)cc1` [Compound 180, 4-(4-(2-(2-aminopyridin-3-yl)-5-phenyl-3H-imidazo[4,5-b]pyridin-3-yl)benzamido)-3-fluorobenzoic acid], the half-inhibitory concentration (IC50) in assay [1] is less than 500 nM; in assay [2] it was less than 50 nM.

Consider `CC(=O)Nc1cccc(-c2cnc3c(c2)nc(-c2cccnc2N)n3-c2ccc(CNC(=O)c3cccc(CC(=O)O)c3)cc2)c1` [Compound 83, 2-(3-((4-(6-(3-acetamidophenyl)-2-(2-aminopyridin-3-yl)-3H-imidazo[4,5-b]pyridin-3-yl)benzyl)carbamoyl)phenyl) acetic acid], for which the IC50 in assay [1] is less than 500 nM; in assay [2] it was 200 to 500 nM.

On to `Nc1ncccc1-c1nc2ccc(-c3ccccc3)nc2n1-c1ccc(C2CN(Cc3ccc(C(=O)O)cc3)C2)cc1` [Compound 183, 4-((3-(4-(2-(2-aminopyridin-3-yl)-5-phenyl-3H-imidazo[4,5-b]pyridin-3-yl)phenyl)azetidin-1-yl)methyl)benzoic acid], for which the IC50 in assay [1] is less than 500 nM; in assay [2] it was 50 to 200 nM.

`Nc1ncccc1-c1nc2cc(-c3ccccc3)cnc2n1-c1ccc(CNC(=O)c2cccc(CC(=O)O)c2)cc1` [Compound 82, 2-(3-((4-(2-(2-aminopyridin-3-yl)-6-phenyl-3H-imidazo[4,5-b]pyridin-3-yl)benzyl)carbamoyl)phenyl) acetic acid]: the IC50 in assay [1] was less than 500 nM; in assay [2] it was 200 to 500 nM.

As to `Nc1ncccc1-c1nc2ccc(-c3ccccc3)nc2n1-c1ccc(C2CN(C(=O)c3ccccc3C(=O)O)C2)cc1` [Compound 74, 2-(3-(4-(2-(2-aminopyridin-3-yl)-5-phenyl-3H-imidazo[4,5-b]pyridin-3-yl)phenyl)azetidine-1-carbonyl)benzoic acid], the IC50 in assay [1] and in assay [2] was more than 500 nM in each case.

Take `CC(C)[C@@H](c1ccc(C(=O)O)cc1)N1CC(c2ccc(-n3c(-c4cccnc4N)nc4ccc(-c5ccccc5)nc43)cc2)C1` [Compound 162]: the figures for the IC50 in assay [1] and in assay [2] were less than 500 nM and 200 to 500 nM, respectively.

In the case of `C[C@H](c1ccc(C(=O)O)cc1F)N1CC(c2ccc(-n3c(-c4cccnc4N)nc4ccc(-c5ccccc5)nc43)cc2)C1` [Compound 160], the IC50 is less than 500 nM in assay [1] and 50 to 200 nM in assay [2].

For `Nc1ncccc1-c1nc2ccc(-c3ccccc3)nc2n1-c1ccc(C2CN(C(=O)c3cccc(C(=O)O)c3F)C2)cc1` [Compound 78, 3-(3-(4-(2-(2-aminopyridin-3-yl)-5-phenyl-3H-imidazo[4,5-b]pyridin-3-yl)phenyl)azetidine-1-carbonyl)-2-fluorobenzoic acid], the IC50 in assay [1] is less than 500 nM; in assay [2], 50 to 200 nM.

Regarding `Nc1ncccc1-c1nc2ccc(-c3ccccc3)nc2n1-c1ccc(NC(=O)c2cccc(CC(=O)O)c2)c(F)c1` [Compound 67, 2-(3-((4-(2-(2-aminopyridin-3-yl)-5-phenyl-3H-imidazo[4,5-b]pyridin-3-yl)-2-fluorophenyl)carbamoyl)phenyl) acetic acid], the half-inhibitory concentration (IC50) is less than 500 nM in assay [1] and 50 to 200 nM in assay [2].

Turning to `Nc1ncccc1-c1nc2ccc(-c3ccccc3)nc2n1-c1ccc(NC(=O)c2cccc(C(=O)O)c2F)c(F)c1` [Compound 65, 3-((4-(2-(2-aminopyridin-3-yl)-5-phenyl-3H-imidazo[4,5-b]pyridin-3-yl)-2-fluorophenyl)carbamoyl)-2-fluorobenzoic acid], the IC50 in assay [1] is less than 500 nM; in assay [2] it was 200 to 500 nM.
